These results are taken from PubChem BioAssay AID248 (DTP/NCI, 2004).

The test system of this assay is L1210 leukemia ip in BDF1 mice, survival T/C. Nature of the assay: NCI In Vivo Anticancer Drug Screen. Data for tumor model L1210 Leukemia (intraperitoneal) in B6D2F1 (BDF1) mice. As to conditions: endpoint: mean survival time, higher = longer survival. An outline of the steps: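 Transplanted-tumor mice were given test agent; controls received vehicle only. Survival readings from the two groups were divided (treated over control).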

Where [1] appears, read: dose: 100.0 mg/kg/injection, schedule: Q01DX009 (ip), vehicle: Klucel (hydroxypropylcellulose) (HPC).
Setting [2] is: dose: 100.0 mg/kg/injection, schedule: Q04DX003 (ip), vehicle: Klucel (hydroxypropylcellulose) (HPC).
Setting [3] is: dose: 200.0 mg/kg/injection, schedule: Q04DX003 (ip), vehicle: Klucel (hydroxypropylcellulose) (HPC).
Where [4] appears, read: dose: 100.0 mg/kg/injection, schedule: Q01DX009 (ip), vehicle: saline.
Where [5] appears, read: dose: 200.0 mg/kg/injection, schedule: Q01DX009 (ip), vehicle: saline.
Setting [6] is: dose: 400.0 mg/kg/injection, schedule: Q01DX009 (ip), vehicle: saline.
Setting [7] is: dose: 25.0 mg/kg/injection, schedule: Q04DX002 (ip), vehicle: Klucel (hydroxypropylcellulose) (HPC).
The mark [8] stands for this setting: dose: 50.0 mg/kg/injection, schedule: Q04DX002 (ip), vehicle: Klucel (hydroxypropylcellulose) (HPC).
The mark [9] stands for this setting: dose: 100.0 mg/kg/injection, schedule: Q04DX002 (ip), vehicle: Klucel (hydroxypropylcellulose) (HPC).
The mark [10] stands for this setting: dose: 200.0 mg/kg/injection, schedule: Q01DX009 (ip), vehicle: Klucel (hydroxypropylcellulose) (HPC).
The mark [11] stands for this setting: dose: 400.0 mg/kg/injection, schedule: Q01DX009 (ip), vehicle: Klucel (hydroxypropylcellulose) (HPC).
The mark [12] stands for this setting: dose: 400.0 mg/kg/injection, schedule: Q04DX003 (ip), vehicle: Klucel (hydroxypropylcellulose) (HPC).
[13] abbreviates: dose: 100.0 mg/kg/injection, schedule: Q01DX001 (ip), vehicle: carboxymethylcellulose (CMC).
The mark [14] stands for this setting: dose: 100.0 mg/kg/injection, schedule: Q01DX001 (ip), vehicle: saline.
Setting [15] is: dose: 200.0 mg/kg/injection, schedule: Q01DX001 (ip), vehicle: carboxymethylcellulose (CMC).
[16] abbreviates: dose: 200.0 mg/kg/injection, schedule: Q01DX001 (ip), vehicle: saline.
The mark [17] stands for this setting: dose: 400.0 mg/kg/injection, schedule: Q01DX001 (ip), vehicle: carboxymethylcellulose (CMC).
Where [18] appears, read: dose: 400.0 mg/kg/injection, schedule: Q01DX001 (ip), vehicle: saline.
Where [19] appears, read: dose: 50.0 mg/kg/injection, schedule: Q01DX001 (ip), vehicle: saline.
[20] abbreviates: dose: 100.0 mg/kg/injection, schedule: Q04DX003 (ip), vehicle: saline.
Where [21] appears, read: dose: 200.0 mg/kg/injection, schedule: Q04DX003 (ip), vehicle: saline.
Where [22] appears, read: dose: 400.0 mg/kg/injection, schedule: Q04DX003 (ip), vehicle: saline.

Each structure is given as a SMILES string. “And” between values parts separate entries of the source, which are not always exact repeats. Identical values can stand only once. Inconclusive results and toxic doses are left out.

For the compound `CC(=O)Nc1nccs1`, the T/C is 94 % of control (dose: 50.0 mg/kg/injection, schedule: Q01DX009 (ip), vehicle: Klucel (hydroxypropylcellulose) (HPC)); 97 % of control under setting [1]; 97 % of control under setting [2]; 97 % of control under setting [3].

For `CC1(N)CCOC1=O` (centres undefined), the T/C runs as follows: under setting [4], 93 % of control; under setting [5], 93 % of control; under setting [6], 93 % of control.

For the compound `NNC(=O)CNc1ccc(Cl)cc1`, the T/C runs as follows: under setting [7], 98 % of control; under setting [8], 106 % of control; under setting [9], 98 % of control and 123 % of control.

Regarding `CNC(=O)Nc1ccc(OC)cc1`, the T/C by setting is: under setting [1], 96 % of control; under setting [2], 110 % of control; under setting [10], 100 % of control; under setting [3], 107 % of control; under setting [11], 102 % of control; under setting [12], 105 % of control.

On to `CCCCOC(=O)c1ccc(NC(=O)Nc2ccc([N+](=O)[O-])cc2OC)cc1`, for which the T/C is, setting by setting: (dose: 100.0 mg/kg/injection, schedule: Q01DX009 (ip), vehicle: other) 98 % of control; (dose: 200.0 mg/kg/injection, schedule: Q01DX009 (ip), vehicle: other) 104 % of control; (dose: 400.0 mg/kg/injection, schedule: Q01DX009 (ip), vehicle: other) 87 % of control.

Regarding `Oc1ccc(Br)cc1Sc1cc(Br)ccc1O`, the T/C was 100 % of control under setting [13]; 97 % of control under setting [14]; 103 % of control under setting [15]; 95 % of control under setting [16]; 95 % of control under setting [17]; 95 % of control under setting [18].

For `CNC(=O)O/N=C(/C)c1ccc(Cl)cc1`, the T/C by setting is: under setting [13], 93 % of control; under setting [15], 101 % of control; under setting [17], 101 % of control.

Take `O=C(O)Cc1ccc2c(c1)OCO2.[Ag]`: the T/C reads like this: (dose: 9.38 mg/kg/injection, schedule: Q01DX001 (ip), vehicle: steriod suspending solution) 95 % of control; (dose: 18.75 mg/kg/injection, schedule: Q01DX001 (ip), vehicle: steriod suspending solution) 94 % of control; (dose: 37.5 mg/kg/injection, schedule: Q01DX001 (ip), vehicle: steriod suspending solution) 92 % of control.

For `O=C(CC1(O)CCCCC1)Nc1ccccc1`, the T/C is, setting by setting: under setting [19], 100 % of control; under setting [14], 97 % of control; under setting [16], 101 % of control; under setting [18], 97 % of control.

Turning to `O=C(Nc1ccc(S(=O)(=O)N2CCCCC2)cc1)OC(c1ccccc1)(c1ccccc1)c1ccccc1`, the T/C runs as follows: under setting [13], 94 % of control; under setting [15], 91 % of control; under setting [17], 89 % of control.

With `CCNc1nc(Cl)nc(C(Cl)(Cl)Cl)c1Cl` (tested in a mixture with another compound), the T/C was 104 % of control under setting [9]; 96 % of control (dose: 200.0 mg/kg/injection, schedule: Q04DX002 (ip), vehicle: Klucel (hydroxypropylcellulose) (HPC)); 100 % of control (dose: 400.0 mg/kg/injection, schedule: Q04DX002 (ip), vehicle: Klucel (hydroxypropylcellulose) (HPC)).

Take `CNCC1C(c2ccc(OC)cc2)C1c1ccc(OC)cc1` (centres undefined): the T/C was 102 % of control (dose: 12.5 mg/kg/injection, schedule: Q04DX002 (ip), vehicle: Klucel (hydroxypropylcellulose) (HPC)); 108 % of control under setting [7]; 94 % of control under setting [8].

As to `CCCCOP(=O)(N1CC1C)N1CC1C` (centres undefined), the T/C is 109 % of control (dose: 6.25 mg/kg/injection, schedule: Q04DX003 (ip), vehicle: acetone); 115 % of control (dose: 12.5 mg/kg/injection, schedule: Q04DX003 (ip), vehicle: acetone); 123 % of control (dose: 25.0 mg/kg/injection, schedule: Q01DX001 (ip), vehicle: saline); 153 % of control and 168 % of control (dose: 25.0 mg/kg/injection, schedule: Q04DX003 (ip), vehicle: acetone); 163 % of control (dose: 37.5 mg/kg/injection, schedule: Q04DX003 (ip), vehicle: acetone); 164 % of control under setting [19]. In addition, the T/C (dose: 66.0 mg/kg/injection, schedule: Q01DX001 (ip), vehicle: acetone) was 158 % of control; the T/C (dose: 75.0 mg/kg/injection, schedule: Q04DX003 (ip), vehicle: acetone) is 91 % of control; the T/C (dose: 100.0 mg/kg/injection, schedule: Q01DX001 (ip), vehicle: acetone) was 169 % of control; the T/C under setting [14] is 159 % of control and 192 % of control; the T/C (dose: 150.0 mg/kg/injection, schedule: Q01DX001 (ip), vehicle: acetone) was 189 % of control; the T/C (dose: 150.0 mg/kg/injection, schedule: Q01DX001 (ip), vehicle: saline) is 168 % of control.

Regarding `O=[N+]([O-])c1ccc(Nc2ccccc2)c([N+](=O)[O-])c1`, the T/C was 103 % of control under setting [8] and 92 % of control under setting [9].

`CCC(C(=O)OC)C(=O)c1ccccc1` (centres undefined): the T/C under setting [19] is 107 % of control, the T/C under setting [14] was 102 % of control, the T/C under setting [16] is 107 % of control and the T/C under setting [18] is 96 % of control.

`O=CC(CO)CC(C=O)n1cnc2c(=O)[nH]cnc21` (centres undefined): under setting [14], the T/C is 114 % of control.

As to `CC(C)c1oc(=O)cc2c1[C@@H](O)[C@H]1OC(=O)[C@@]3(C)[C@@H](O)[C@H]4O[C@H]4[C@@]2(C)[C@@H]13`, the T/C was 105 % of control (dose: 5.0 mg/kg/injection, schedule: Q01DX001 (ip), vehicle: steriod suspending solution); 98 % of control (dose: 10.0 mg/kg/injection, schedule: Q01DX001 (ip), vehicle: steriod suspending solution); 110 % of control (dose: 20.0 mg/kg/injection, schedule: Q01DX001 (ip), vehicle: steriod suspending solution); 104 % of control (dose: 40.0 mg/kg/injection, schedule: Q01DX001 (ip), vehicle: steriod suspending solution).

Turning to `Cc1ccc2[c](c1)[Sn]([c]1ccccc1)([c]1ccccc1)[c]1cc(C)ccc1N2C`, the T/C is, setting by setting: (dose: 100.0 mg/kg/injection, schedule: Q01DX001 (ip), vehicle: steriod suspending solution) 96 % of control; (dose: 200.0 mg/kg/injection, schedule: Q01DX001 (ip), vehicle: steriod suspending solution) 94 % of control; (dose: 400.0 mg/kg/injection, schedule: Q01DX001 (ip), vehicle: steriod suspending solution) 96 % of control.

With `Oc1ccc2ccccc2c1C=Nc1ccc(Br)cc1`, the T/C reads like this: under setting [2], 91 % of control; under setting [3], 90 % of control; under setting [12], 91 % of control.

`CCOC(=O)CCN1CCCC1`: the T/C runs as follows: under setting [4], 110 % of control; under setting [20], 94 % of control; under setting [5], 106 % of control; under setting [21], 103 % of control; under setting [6], 105 % of control; under setting [22], 103 % of control.

Take `O=C1c2ccccc2C(=O)N1OCc1ccc(CON2C(=O)c3ccccc3C2=O)cc1`: the T/C runs as follows: under setting [20], 101 % of control; under setting [21], 95 % of control; under setting [22], 95 % of control.

`CC(=O)c1cccc(NC(=O)Nc2cccc(F)c2)c1`: the T/C runs as follows: under setting [1], 103 % of control; under setting [10], 97 % of control; under setting [11], 110 % of control.

On to `CCNC(=O)CS(=O)(=O)c1ccc(N)cc1`, for which the T/C runs as follows: under setting [20], 100 % of control; under setting [21], 108 % of control; under setting [22], 105 % of control.

On to `O=c1cc(/C=C/c2ccc3ccccc3n2)c2ccccc2[nH]1`, for which the T/C is 98 % of control under setting [14], 96 % of control under setting [16] and 102 % of control under setting [18].

In the case of `CCCCCCCCCCC/C(C)=N/Nc1ccc([N+](=O)[O-])cc1[N+](=O)[O-]`, the T/C is 94 % of control (dose: 100.0 mg/kg/injection, schedule: Q01DX001 (ip), vehicle: saline with Tween-80); 92 % of control (dose: 200.0 mg/kg/injection, schedule: Q01DX001 (ip), vehicle: saline with Tween-80); 92 % of control (dose: 400.0 mg/kg/injection, schedule: Q01DX001 (ip), vehicle: saline with Tween-80).
